Active and inactive are the calls of the source.
Key:
[1] = biological target: Phosphomannomutase 2 (Homo sapiens, UniProt O15305); assay: Counter screen SAR assay for PMM2 inhibitors via a fluorescence intensity assay. [Related pubchem assays (depositor defined):AID1545, AID1574]
[2] = biological target: Mitochondrial peptide methionine sulfoxide reductase (Bos taurus, UniProt P54149); assay: Absorbance-based biochemical high throughput dose response assay for activators of Methionine sulfoxide reductase A (MsrA).; assay type: functional
Sequence of Mitochondrial peptide methionine sulfoxide reductase (P54149 whole entry): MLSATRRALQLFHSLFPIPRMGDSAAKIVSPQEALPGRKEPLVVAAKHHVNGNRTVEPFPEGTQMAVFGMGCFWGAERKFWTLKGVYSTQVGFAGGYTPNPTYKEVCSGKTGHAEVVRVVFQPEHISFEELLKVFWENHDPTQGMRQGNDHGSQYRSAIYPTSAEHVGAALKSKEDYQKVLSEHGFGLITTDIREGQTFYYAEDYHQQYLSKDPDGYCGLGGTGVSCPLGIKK

[3] = biological target: T1, Mannose-6-phosphate isomerase (Homo sapiens, UniProt P34949); assay: PMI enzyme inhibitors, confirmation, biochemical, fluorescence intensity (AID 1535)
T1 sequence (P34949 whole entry): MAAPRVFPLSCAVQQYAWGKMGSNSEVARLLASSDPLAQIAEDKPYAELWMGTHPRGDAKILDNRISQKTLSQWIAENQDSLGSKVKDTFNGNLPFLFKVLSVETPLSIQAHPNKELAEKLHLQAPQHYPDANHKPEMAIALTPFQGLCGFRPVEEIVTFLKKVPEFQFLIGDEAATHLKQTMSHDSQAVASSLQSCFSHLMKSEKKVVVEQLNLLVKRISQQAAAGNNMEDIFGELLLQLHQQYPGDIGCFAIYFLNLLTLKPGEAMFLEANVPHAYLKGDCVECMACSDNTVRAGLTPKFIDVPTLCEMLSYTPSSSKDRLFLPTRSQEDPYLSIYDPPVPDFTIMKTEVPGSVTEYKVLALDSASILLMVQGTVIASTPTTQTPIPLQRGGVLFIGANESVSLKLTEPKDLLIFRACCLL

[4] = biological target: Glucose-6-phosphate 1-dehydrogenase (Homo sapiens, UniProt P11413); assay: human G6PD enzyme inhibitors, dose response, selectivity assay for P. falciparum G6PD inhibitor project, biochemical, fluorescence (AID 504792); assay type: functional
Sequence of Glucose-6-phosphate 1-dehydrogenase (P11413 whole entry): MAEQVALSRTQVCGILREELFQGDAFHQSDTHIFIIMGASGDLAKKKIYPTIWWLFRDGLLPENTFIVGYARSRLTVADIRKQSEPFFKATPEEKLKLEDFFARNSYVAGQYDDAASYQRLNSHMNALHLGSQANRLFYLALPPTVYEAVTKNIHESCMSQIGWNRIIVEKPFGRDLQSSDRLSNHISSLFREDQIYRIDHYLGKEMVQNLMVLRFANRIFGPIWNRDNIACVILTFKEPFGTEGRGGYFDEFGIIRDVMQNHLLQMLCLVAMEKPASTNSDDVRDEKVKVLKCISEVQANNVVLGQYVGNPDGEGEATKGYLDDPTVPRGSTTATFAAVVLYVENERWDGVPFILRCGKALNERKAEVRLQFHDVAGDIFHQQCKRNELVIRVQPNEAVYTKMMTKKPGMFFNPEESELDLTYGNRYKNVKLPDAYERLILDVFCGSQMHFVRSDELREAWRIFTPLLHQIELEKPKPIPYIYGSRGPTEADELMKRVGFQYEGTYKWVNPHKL

[5] = biological target: T2, Hexokinase (Trypanosoma brucei, UniProt Q38C41); assay: Confirmation assay for inhibitors of Trypanosoma brucei hexokinase 1-Analogue-first series. [Related pubchem assays (depositor defined):AID1430, AID1632, AID2516, AID2560, AID2579, AID2600, AID449725, AID492951]; assay type: functional
T2 sequence (Q38C41 whole entry): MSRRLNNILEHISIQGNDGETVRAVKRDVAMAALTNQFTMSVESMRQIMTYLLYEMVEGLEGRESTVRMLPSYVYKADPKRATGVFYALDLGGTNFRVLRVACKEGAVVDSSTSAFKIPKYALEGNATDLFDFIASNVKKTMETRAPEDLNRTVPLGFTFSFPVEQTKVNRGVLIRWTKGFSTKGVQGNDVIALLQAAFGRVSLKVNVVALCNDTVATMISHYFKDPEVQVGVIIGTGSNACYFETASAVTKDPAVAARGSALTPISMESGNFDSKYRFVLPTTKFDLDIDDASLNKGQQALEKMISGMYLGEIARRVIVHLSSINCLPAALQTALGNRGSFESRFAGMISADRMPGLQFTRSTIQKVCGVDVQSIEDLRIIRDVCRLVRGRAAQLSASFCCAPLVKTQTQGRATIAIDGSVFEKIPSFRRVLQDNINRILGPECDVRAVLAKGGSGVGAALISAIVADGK

[6] = biological target: Phosphoethanolamine/phosphocholine phosphatase (Homo sapiens, UniProt Q8TCT1); assay: SAR assay for compounds that inhibit PHOSPHO1. [Related pubchem assays (depositor defined):AID1545, AID1565, AID1574]
Sequence of Phosphoethanolamine/phosphocholine phosphatase (Q8TCT1 whole entry): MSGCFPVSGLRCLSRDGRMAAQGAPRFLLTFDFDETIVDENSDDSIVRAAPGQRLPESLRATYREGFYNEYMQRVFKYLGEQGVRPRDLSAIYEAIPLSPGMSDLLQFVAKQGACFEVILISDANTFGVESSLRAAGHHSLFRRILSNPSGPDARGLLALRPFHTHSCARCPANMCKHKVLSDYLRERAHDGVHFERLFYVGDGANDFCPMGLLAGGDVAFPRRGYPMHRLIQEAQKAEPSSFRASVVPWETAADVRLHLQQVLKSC

[7] = HeLa cell cytotoxicity, dose response, cytotoxicity control for MgcRacGAP inhibitor project (AID 624300); assay type: functional
[8] = biological target: T3, Rac GTPase-activating protein 1 (Homo sapiens, UniProt Q9H0H5); assay: MgcRacGAP GTPase-activating activity inhibitors, confirmation, biochemical, ADP Hunter fluorescence, primary and confirmatory (AID 624330); assay type: functional
T3 sequence (Q9H0H5 whole entry): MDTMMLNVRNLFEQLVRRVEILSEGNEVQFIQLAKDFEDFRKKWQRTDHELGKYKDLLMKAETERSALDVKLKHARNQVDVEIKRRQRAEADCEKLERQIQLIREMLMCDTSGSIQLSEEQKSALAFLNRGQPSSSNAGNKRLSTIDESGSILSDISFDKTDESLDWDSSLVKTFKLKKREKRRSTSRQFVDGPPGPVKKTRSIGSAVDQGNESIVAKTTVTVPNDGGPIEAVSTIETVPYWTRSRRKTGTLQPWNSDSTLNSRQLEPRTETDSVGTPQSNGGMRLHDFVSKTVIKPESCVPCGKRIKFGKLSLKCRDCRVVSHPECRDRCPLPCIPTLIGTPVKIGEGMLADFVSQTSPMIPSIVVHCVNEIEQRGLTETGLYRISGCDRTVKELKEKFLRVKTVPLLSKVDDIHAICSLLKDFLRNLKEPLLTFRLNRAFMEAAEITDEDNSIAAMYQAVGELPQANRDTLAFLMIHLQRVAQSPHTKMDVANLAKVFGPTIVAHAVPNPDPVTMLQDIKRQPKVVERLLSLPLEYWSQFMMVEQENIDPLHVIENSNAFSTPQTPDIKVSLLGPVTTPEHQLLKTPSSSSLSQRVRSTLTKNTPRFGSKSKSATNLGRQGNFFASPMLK

[9] = biological target: T4, Type-1 angiotensin II receptor (Homo sapiens, UniProt P30556); assay: AT1 receptor agonists, dose response, selectivity assay for APJ receptor agonist project, cell-based, uHTS hits (AID 488865); assay type: functional;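 also: beta-arrestin recruitment to AT1 measured by enzyme fragment complementation luminescence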
T4 sequence (P30556 whole entry): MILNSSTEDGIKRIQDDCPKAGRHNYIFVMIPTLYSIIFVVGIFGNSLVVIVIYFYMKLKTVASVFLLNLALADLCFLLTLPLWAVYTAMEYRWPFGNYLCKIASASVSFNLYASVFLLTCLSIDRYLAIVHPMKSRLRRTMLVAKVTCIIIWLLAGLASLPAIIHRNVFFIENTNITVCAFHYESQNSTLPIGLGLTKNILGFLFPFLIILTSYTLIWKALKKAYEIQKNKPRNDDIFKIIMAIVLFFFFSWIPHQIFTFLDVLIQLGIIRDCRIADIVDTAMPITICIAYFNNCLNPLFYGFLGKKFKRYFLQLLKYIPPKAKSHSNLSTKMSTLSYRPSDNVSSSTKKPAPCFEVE

[10] = biological target: 5-hydroxytryptamine receptor 2A (Mus musculus, UniProt P35363); assay type: functional, cell-based;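 also: CHO-K1 cells with tagged receptor and beta-arrestin; agonist potency measured as compound-induced activation of the receptor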
Sequence of 5-hydroxytryptamine receptor 2A (P35363 whole entry): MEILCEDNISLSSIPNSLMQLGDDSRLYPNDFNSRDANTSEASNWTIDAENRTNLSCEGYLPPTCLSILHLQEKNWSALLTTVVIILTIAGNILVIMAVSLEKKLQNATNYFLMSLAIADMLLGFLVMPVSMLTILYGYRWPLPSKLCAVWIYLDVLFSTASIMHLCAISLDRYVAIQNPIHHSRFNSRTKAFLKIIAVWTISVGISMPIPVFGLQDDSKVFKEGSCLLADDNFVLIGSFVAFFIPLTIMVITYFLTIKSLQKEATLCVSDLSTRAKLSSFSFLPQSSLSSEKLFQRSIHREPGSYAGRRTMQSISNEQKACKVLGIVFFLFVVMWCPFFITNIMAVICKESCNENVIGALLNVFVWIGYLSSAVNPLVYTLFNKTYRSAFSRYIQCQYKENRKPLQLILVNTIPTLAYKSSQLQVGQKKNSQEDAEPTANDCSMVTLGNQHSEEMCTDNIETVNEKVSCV

[11] = cytotoxicity in KRAS-transformed pancreatic duct cells, primary screen, cell-based, fluorescence, HTS (AID 431); assay type: functional; conditions: Homo sapiens;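 also: cell line used: HPDE-C7K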
[12] = cytotoxicity in HPDE-C7 cells, cell-based, fluorescence, HTS (AID 430); assay type: functional; conditions: Homo sapiens
[13] = biological target: G-protein coupled receptor 55 (Homo sapiens, UniProt Q9Y2T6); assay: GPR55 agonists via beta-arrestin recruitment, primary screen, imaging, U2OS cells, beta-arrestin-GFP redistribution (AID 1961); assay type: functional
Sequence of G-protein coupled receptor 55 (Q9Y2T6 whole entry): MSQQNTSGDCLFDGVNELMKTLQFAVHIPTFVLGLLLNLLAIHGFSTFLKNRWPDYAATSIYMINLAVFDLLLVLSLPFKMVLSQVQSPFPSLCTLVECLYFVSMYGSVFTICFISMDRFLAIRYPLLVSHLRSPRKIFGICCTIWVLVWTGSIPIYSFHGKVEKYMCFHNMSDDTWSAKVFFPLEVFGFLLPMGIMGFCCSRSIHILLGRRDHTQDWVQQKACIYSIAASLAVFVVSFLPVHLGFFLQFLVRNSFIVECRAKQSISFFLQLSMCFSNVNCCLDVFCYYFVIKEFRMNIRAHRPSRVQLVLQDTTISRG

[14] = biological target: Polyadenylate-binding protein 1 (Homo sapiens, UniProt P11940); assay: PABP inhibition in translation initiation, SAR follow-up (AID 435018); assay type: functional
Sequence of Polyadenylate-binding protein 1 (P11940 whole entry): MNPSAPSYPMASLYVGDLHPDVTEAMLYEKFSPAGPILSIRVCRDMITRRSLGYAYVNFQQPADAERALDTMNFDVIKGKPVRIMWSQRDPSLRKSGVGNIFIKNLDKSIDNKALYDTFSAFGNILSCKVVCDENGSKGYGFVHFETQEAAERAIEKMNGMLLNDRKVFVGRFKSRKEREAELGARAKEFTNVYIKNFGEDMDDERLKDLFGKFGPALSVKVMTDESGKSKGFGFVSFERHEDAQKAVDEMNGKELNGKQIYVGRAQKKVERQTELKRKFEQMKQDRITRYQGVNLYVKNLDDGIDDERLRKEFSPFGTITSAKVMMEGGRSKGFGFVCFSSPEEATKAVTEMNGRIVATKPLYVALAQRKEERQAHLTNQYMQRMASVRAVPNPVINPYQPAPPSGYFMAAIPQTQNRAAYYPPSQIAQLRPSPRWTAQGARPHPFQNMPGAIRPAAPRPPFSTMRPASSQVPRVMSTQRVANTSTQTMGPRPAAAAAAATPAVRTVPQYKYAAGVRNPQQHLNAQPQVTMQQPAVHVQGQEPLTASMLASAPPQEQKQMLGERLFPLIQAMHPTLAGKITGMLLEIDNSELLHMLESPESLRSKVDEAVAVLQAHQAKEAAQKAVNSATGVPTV

[15] = biological target: Eukaryotic translation initiation factor 4H (Homo sapiens, UniProt Q15056); assay: eIF4H inhibition in translation initiation, SAR follow-up (AID 435011); assay type: functional
[16] = biological target: T5, Dual specificity protein phosphatase 3 (Homo sapiens, UniProt P51452); assay: SAR VHR1 Fluorescent Assay for In Vitro dose response studies Set 2. [Related pubchem assays (depositor defined):AID1654, AID1661, AID1878]; assay type: functional
T5 sequence (P51452 whole entry): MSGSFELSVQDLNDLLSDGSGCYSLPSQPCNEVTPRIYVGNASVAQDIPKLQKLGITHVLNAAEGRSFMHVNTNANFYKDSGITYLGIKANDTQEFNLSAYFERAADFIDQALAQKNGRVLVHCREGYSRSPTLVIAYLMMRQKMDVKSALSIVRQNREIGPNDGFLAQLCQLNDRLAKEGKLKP

[17] = biological target: T6, Tyrosine-protein phosphatase non-receptor type 7 (Homo sapiens, UniProt P35236); assay: SAR analysis of chemical inhibitors of HePTP using a Fluorescent assay - Set 2. [Related pubchem assays (depositor defined):AID1059, AID1077, AID1661, AID2085, AID521]; assay type: functional
T6 sequence (P35236 whole entry): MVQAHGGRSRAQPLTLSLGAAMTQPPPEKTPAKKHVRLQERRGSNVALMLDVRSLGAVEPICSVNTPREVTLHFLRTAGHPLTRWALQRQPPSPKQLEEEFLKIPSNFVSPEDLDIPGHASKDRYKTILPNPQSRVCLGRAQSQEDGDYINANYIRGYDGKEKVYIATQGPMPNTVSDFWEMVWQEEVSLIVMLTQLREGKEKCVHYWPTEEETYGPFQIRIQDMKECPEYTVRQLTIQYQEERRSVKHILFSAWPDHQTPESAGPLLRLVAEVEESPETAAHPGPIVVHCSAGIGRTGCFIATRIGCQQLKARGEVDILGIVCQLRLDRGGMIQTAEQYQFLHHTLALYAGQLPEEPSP

[18] = biological target: Induced myeloid leukemia cell differentiation protein Mcl-1 (Homo sapiens, UniProt Q07820); assay type: functional
Sequence of Induced myeloid leukemia cell differentiation protein Mcl-1 (Q07820 whole entry): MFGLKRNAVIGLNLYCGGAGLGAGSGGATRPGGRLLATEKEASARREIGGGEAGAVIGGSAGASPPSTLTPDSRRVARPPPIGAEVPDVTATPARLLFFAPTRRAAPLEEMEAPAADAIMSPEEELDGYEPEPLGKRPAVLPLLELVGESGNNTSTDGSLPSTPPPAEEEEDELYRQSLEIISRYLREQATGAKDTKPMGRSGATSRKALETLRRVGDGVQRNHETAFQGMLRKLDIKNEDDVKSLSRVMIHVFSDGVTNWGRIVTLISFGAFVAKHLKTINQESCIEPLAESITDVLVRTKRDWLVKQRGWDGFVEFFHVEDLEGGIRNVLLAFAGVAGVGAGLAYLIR

[19] = biological target: Ephrin type-A receptor 4 (Mus musculus, UniProt Q03137); assay: inhibitors of EphA4 binding to KYL peptide, primary screen, biochemical, colorimetric, mouse EphA4 (AID 689); assay type: functional
Sequence of Ephrin type-A receptor 4 (Q03137 whole entry): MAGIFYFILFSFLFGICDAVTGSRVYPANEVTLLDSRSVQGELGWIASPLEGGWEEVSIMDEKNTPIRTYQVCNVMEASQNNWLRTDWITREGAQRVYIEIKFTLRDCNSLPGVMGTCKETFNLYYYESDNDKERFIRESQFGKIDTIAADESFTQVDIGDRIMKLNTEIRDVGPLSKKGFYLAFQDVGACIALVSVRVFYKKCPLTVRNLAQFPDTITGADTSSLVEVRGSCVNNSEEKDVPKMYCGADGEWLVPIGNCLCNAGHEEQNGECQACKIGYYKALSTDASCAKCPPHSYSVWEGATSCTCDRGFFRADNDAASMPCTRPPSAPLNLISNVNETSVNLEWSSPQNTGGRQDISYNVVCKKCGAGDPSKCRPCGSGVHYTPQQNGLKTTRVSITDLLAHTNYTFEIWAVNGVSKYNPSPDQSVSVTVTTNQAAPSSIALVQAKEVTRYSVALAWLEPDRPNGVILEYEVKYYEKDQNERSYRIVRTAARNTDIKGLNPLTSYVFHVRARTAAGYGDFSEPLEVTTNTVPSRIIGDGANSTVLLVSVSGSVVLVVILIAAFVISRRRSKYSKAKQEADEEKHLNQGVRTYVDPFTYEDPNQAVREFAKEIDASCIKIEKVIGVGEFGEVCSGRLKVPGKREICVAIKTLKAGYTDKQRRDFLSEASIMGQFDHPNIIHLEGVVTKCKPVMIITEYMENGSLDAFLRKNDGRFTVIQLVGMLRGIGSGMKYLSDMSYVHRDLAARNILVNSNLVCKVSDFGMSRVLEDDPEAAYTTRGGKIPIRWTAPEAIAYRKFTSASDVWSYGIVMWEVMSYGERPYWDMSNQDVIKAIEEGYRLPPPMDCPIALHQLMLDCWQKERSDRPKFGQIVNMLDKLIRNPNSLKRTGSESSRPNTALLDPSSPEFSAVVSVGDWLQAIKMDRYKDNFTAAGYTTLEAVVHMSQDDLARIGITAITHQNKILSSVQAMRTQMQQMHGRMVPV

[20] = biological target: T6, Tyrosine-protein phosphatase non-receptor type 7; assay: redox-dependent HePTP inhibition, mechanism study, biochemical, fluorescence (AID 2068); assay type: functional
[21] = system: Vero; assay: cytotoxicity of synthesized analogs in Vero cells, SAR follow-up, cytotoxicity control for West Nile virus antiviral project, cell-based, set II (AID 2402); assay type: functional; conditions: Chlorocebus sabaeus
[22] = system: Vero; assay: West Nile virus CPE inhibition, SAR follow-up, cell-based, synthesized analogs (AID 2238); assay type: functional; conditions: Chlorocebus sabaeus
[23] = system: Vero; assay: cytotoxicity of synthesized analogs in Vero 76, SAR follow-up, cytotoxicity control for West Nile virus antiviral project, Vero 76 cells (AID 2414); assay type: functional; conditions: Chlorocebus sabaeus
[24] = A Cell Based Assay for the Identification of Probe candidate Compounds with Anti- Venezuelan Equine Encephalitis virus. [Related pubchem assays: 2409, 2419, 1621, 2238, 2405, 2024, 2065, 2402, 2414, 1635, 1650, 2244 ]; assay type: functional
[25] = system: Vero; assay: Vero E6 cell cytotoxicity, SAR follow-up, cytotoxicity control for West Nile virus antiviral project, synthesized analogs (AID 2244); assay type: functional; conditions: Chlorocebus sabaeus
[26] = biological target: T6, Tyrosine-protein phosphatase non-receptor type 7; assay: Dose Response confirmation of compounds that inhibit HePTP. [Related pubchem assays (depositor defined):AID1059, AID1661, AID2085]; assay type: functional
[27] = biological target: T5, Dual specificity protein phosphatase 3; assay: Dose Response Confirmation of compounds that inhibit VHR1 in Fluorescent Assay. [Related pubchem assays (depositor defined):AID1661, AID1878]; assay type: functional

Sequence of Phosphomannomutase 2 (O15305 whole entry): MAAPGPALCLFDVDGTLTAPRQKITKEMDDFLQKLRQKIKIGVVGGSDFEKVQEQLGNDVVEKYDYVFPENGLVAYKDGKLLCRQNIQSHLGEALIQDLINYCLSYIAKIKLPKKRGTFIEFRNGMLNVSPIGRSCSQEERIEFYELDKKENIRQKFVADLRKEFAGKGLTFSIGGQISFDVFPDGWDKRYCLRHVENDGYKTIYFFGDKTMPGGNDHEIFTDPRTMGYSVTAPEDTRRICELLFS

**Q.** With `O=c1c2ccccc2sn1-c1cccc(Cl)c1` as the compound, how does the IC50 [1] read?
**A.** 59.6 µM (active)

**Q.** What about the EC50 [2] of the same compound?
**A.** > 104 µM (inactive)

**Q.** What about the IC50 [3] of the same compound?
**A.** 3.43 µM (active)

**Q.** What about the IC50 [4] of the same compound?
**A.** 13 µM (active)

**Q.** What about the IC50 [5] of the same compound?
**A.** 1.9 µM (active)

**Q.** What about the IC50 [6] of the same compound?
**A.** 5.21 µM (inactive)

**Q.** And the CC50 [7]?
**A.** 100 µM (active)

**Q.** And the IC50 [8]?
**A.** 33.9 µM (active)

**Q.** For `COC(=O)C1=C(Cn2cnc3ccccc32)NC(=O)NC1c1cc(C)ccc1C` (configuration not stated), which EC50 [9] is on record?
**A.** > 100 µM (inactive)

**Q.** What about the EC50 [10] of the same compound?
**A.** 8.44 µM (active)

**Q.** With `CC/C(Nc1ccc(OC)cc1OC)=C1/C(=O)NC(=O)N(C2CCCCC2)C1=O` as the compound, how does the EC50 [11] read?
**A.** 16.3 µM (active)

**Q.** What about the EC50 [12] of the same compound?
**A.** 12.8 µM (active)

**Q.** What about the EC50 [13] of the same compound?
**A.** 10.9 µM (inactive)

**Q.** For `COc1ccc([N+](=O)[O-])cc1NC(=O)C(C)OC(=O)c1ccccc1C(=O)c1ccc(Cl)cc1` (configuration not stated), which IC50 [14] is on record?
**A.** > 100 µM (inactive)

**Q.** And the IC50 [15]?
**A.** > 100 µM (inactive)

**Q.** Which results are given for `O=S(=O)(Nc1ncccn1)c1ccc(NC(=S)N2CCN(Cc3ccc4c(c3)OCO4)CC2)cc1`?
**A.** IC50 [16]: > 100 µM (inactive); IC50 [17]: > 100 µM (inactive)

**Q.** Which IC50 [18] does the source give for `O=S(=O)(c1ccc2nc(-c3ccco3)c(-c3ccco3)nc2c1)N1CCOCC1` here?
**A.** 5.65 µM (active)

**Q.** And the IC50 [19]?
**A.** 21.5 µM (active)

**Q.** What about the IC50 [20] of the same compound?
**A.** 7.46 µM (active)

**Q.** With `O=C(CSc1nc2ccccc2c(=O)n1-c1ccc(Cl)cc1)Nc1ccc2c(c1)CCC2` as the compound, how does the CC50 [21] read?
**A.** > 100 µM (active)

**Q.** And the IC50 [22]?
**A.** > 40 µM (active)

**Q.** And the CC50 [23]?
**A.** > 66.6 µM (active)

**Q.** And the IC50 [24]?
**A.** 7.56 µM (active)

**Q.** What about the CC50 [25] of the same compound?
**A.** > 40 µM (active)

**Q.** What does the source list for `Cn1c2ccccc2c(=O)c2ccc(C#Cc3ccccn3)cc21`?
**A.** IC50 [26]: 6.64 µM (active); IC50 [27]: 7.2 µM (active)

Source: ChEMBL document CHEMBL1201862, “PubChem BioAssay data set” (2004)
